Assay results published in PMC8130605 (RSC Medicinal Chemistry, 2021).

Assays:
[1] = Mouse pharmacokinetic study; assay type: in vivo; conditions: after oral dosing 50 mg kg^−1
THP1 cells = test: THP1 host cell cytotoxicity; assay type: cell-based

Compound | compound in the plasma after 24 hours [1] | background cell cytotoxicity (in words) (THP1 cells)
COc1ccn2c(Nc3cc(F)cc(F)c3)c(-c3ccccn3)nc2c1 [Compound 23] | no compound observed | –
Cc1ccc2nc(-c3ccc(N(C)C)cc3)c(NC3CCCCC3)n2c1 [Compound 8] | – | no background cell cytotoxicity
CC(C)(C)Nc1c(-c2ccccn2)nc2c(OCc3ccccc3)cccn12 [Compound 2] | – | no background cell cytotoxicity
